Consider eight compounds from patent US20170050961A1, “IMIDAZO[1,2-A]PYRIDINES AS SOLUBLE GUANYLATE CYCLASE STIMULATORS FOR THE TREATMENT OF CARDIOVASCULAR DISEASES” (BAYER PHARMA AKTIENGESELLSCHAFT, priority 2014, published 2017).

The experiment concerns the target T1, recombinant guanylate cyclase reporter cell line (Rattus norvegicus, UniProt P19686+P20595).
T1 construct: expressed in transfected cells
T1 sequence (P19686 1-690): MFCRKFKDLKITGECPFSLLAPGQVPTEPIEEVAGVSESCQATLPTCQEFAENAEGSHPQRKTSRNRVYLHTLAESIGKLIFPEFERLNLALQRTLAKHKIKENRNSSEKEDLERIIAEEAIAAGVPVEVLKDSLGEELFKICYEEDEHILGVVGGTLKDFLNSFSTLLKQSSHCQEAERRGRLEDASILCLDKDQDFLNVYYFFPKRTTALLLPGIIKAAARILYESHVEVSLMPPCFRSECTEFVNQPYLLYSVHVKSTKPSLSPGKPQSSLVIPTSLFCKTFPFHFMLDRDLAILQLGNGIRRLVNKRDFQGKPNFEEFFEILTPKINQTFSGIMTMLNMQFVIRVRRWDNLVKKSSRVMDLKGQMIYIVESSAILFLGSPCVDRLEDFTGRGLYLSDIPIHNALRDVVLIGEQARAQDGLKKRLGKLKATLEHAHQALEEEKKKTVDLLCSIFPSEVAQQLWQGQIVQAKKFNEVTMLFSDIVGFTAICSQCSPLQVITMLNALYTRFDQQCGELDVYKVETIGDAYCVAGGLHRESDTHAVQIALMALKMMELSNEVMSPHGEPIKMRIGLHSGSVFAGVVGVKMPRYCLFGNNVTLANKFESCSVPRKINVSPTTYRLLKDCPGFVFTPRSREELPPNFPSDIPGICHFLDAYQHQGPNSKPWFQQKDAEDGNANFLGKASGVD
T1 sequence (P20595 1-619): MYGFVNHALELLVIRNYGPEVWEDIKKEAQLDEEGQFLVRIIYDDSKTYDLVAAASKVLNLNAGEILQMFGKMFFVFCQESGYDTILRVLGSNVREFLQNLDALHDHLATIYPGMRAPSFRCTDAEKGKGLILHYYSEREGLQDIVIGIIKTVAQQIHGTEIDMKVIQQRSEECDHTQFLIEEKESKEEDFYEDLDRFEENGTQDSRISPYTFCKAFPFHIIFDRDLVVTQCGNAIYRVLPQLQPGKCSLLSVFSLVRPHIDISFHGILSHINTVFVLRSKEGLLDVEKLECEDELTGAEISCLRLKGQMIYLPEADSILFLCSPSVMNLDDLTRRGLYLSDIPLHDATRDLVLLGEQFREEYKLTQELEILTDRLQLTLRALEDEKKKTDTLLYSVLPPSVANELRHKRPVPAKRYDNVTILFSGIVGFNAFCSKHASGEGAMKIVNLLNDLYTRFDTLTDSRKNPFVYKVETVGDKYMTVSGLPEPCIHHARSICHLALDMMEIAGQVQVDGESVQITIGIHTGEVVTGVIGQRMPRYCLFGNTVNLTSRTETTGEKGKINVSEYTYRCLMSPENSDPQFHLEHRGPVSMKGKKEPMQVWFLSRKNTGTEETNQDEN
The experiment in a line: Effect on a recombinant guanylate cyclase reporter cell line. The note with it: MEC=minimum effective concentration; in some cases as mean values for individual determinations. The experiment is classed as cell-based. As for the experimental part: B-2. Effect on a Recombinant Guanylate Cyclase Reporter Cell Line
The cellular activity of the compounds of the invention is determined using a recombinant guanylate cyclase reporter cell line, as described in F. Wunder et al., Anal Biochem. 339, 104-112 (2005).
Representative MEC values (MEC=minimum effective concentration) for the compounds of the invention are shown in the table below (in some cases as mean values for individual determinations): […]
With `Cc1cc(OCc2c(F)cccc2F)c2nc(C(C)C)c(C(=O)NCC(C)(N)CCC(F)(F)F)n2c1` (single isomer, unassigned; enantiomer b) [Example 18, ent-N-(2-Amino-5,5,5-trifluoro-2-methylpentyl)-8-[(2,6-difluorobenzyl)oxy]-2-isopropyl-6-methylimidazo[1,2-a]pyridine-3-carboxamide (enantiomer B)], the MEC was found to be 2.0 µM.

As for `Cc1cc(OCc2c(F)cccc2F)c2nc(Cl)c(C(=O)NCC(C)(N)CCC(F)(F)F)n2c1` (single isomer, unassigned; enantiomer b) [Example 19, ent-N-(2-Amino-5,5,5-trifluoro-2-methylpentyl)-2-chloro-8-[(2,6-difluorobenzyl)oxy]-6-methylimidazo[1,2-a]pyridine-3-carboxamide (enantiomer B)], the MEC was 0.07 µM.

As for `CCC(C)(N)CNC(=O)c1c(Cl)nc2c(OCc3c(F)cccc3F)cc(C)cn12` (single isomer, unassigned; enantiomer b) [Example 22, ent-N-(2-Amino-2-methylbutyl)-2-chloro-8-[(2,6-difluorobenzyl)oxy]-6-methylimidazo[1,2-a]pyridine-3-carboxamide (enantiomer B)], the MEC stood at 0.1 µM.

Consider `CCCC(C)(N)CNC(=O)c1c(Cl)nc2c(OCc3c(F)cccc3F)cc(C)cn12` (single isomer, unassigned; enantiomer b) [Example 25, ent-N-(2-Amino-2-methylpentyl)-2-chloro-8-[(2,6-difluorobenzyl)oxy]-6-methylimidazo[1,2-a]pyridine-3-carboxamide (enantiomer B)], for which the MEC was 0.3 µM.

With `CCC(C)(N)CNC(=O)c1c(OC)nc2c(OCc3c(F)cccc3F)cc(C)cn12` (single isomer, unassigned; enantiomer b) [Example 26, ent-N-(2-Amino-2-methylbutyl)-8-[(2,6-difluorobenzyl)oxy]-2-methoxy-6-methylimidazo[1,2-a]pyridine-3-carboxamide (enantiomer B)], the MEC amounted to 2.0 µM.

Turning to `COc1nc2c(OCc3c(F)cccc3F)cc(C)cn2c1C(=O)NCC(C)(N)CCC(F)(F)F` (single isomer, unassigned; enantiomer b) [Example 27, ent-N-(2-Amino-5,5,5-trifluoro-2-methylpentyl)-8-[(2,6-difluorobenzyl)oxy]-2-methoxy-6-methylimidazo[1,2-a]pyridine-3-carboxamide (enantiomer B)], the MEC is 3.0 µM.

With `Cc1cc(OCc2c(F)cccc2F)c2nc(Cl)c(C(=O)NC(CCC(F)(F)C(F)(F)F)C(C)(C)O)n2c1` (single isomer, unassigned; ent-2) [Example 28, ent-2-Chloro-8-[(2,6-difluorobenzyl)oxy]-6-methyl-N-(6,6,7,7,7-pentafluoro-2-hydroxy-2-methylheptan-3-yl)imidazo[1,2-a]pyridine-3-carboxamide (enantiomer A)], the MEC is 0.03 µM.

For the compound `CCCC[C@H](CO)NC(=O)c1c(OC)nc2c(OCc3c(F)cccc3F)cc(C)cn12` [Example 29, 8-[(2,6-Difluorobenzyl)oxy]-N-[(2R)-1-hydroxyhexan-2-yl]-2-methoxy-6-methylmidazo[1,2-a]pyridine-3-carboxamide], the MEC turned out to be 0.55 µM.
